In one series the test system is MES-induced seizures. The series can be described thus: MES seizure test, CF-1 mice, compounds given i.p. as solution. The class given is in vivo. The method, then: MES assays were performed at the Department of Neurology at the University of California with CF-1 mice. This study was approved by the University of California, Davis, Animal Use and Care Committee and conducted in accordance with the guidelines of Animal Use and Care of the National Institutes of Health and the University of California. For these assays, stock solutions of SKA-19 (5 mg/ml) were prepared in 5% CremophorEL (Sigma-Aldrich, St. Louis, Mo., USA) and 95% saline, diluted further with saline, and SKA-19 was administered i.p. in a volume of 10 ml/kg body weight. Animals were subjected to a 0.2-s, 60-Hz electrical stimulus through corneal electrodes (5 mm diameter stainless steel balls). The electroshock unit was adjusted to deliver a constant current of 50 mA. Immediately before stimulation, the corneal electrodes were wetted with saline to provide good electrical contact. Animals failing to show tonic hindlimb extension were scored as protected (Kokate et al., 1994).
The mouse maximal electroshock (MES) and 6 Hz seizure models were used. Motor toxicity was assessed using a modification of the horizontal screen test. ED50 values in the seizure models and TD50 values in the toxicity test were determined by nonlinear fitting of dose-response curves. […] Drugs solutions were injected intraperitoneally 10 min prior to administration of the electrical stimulus in a volume of 10 ml/kg body weight.

A short description of series [1]: Acute toxicity, neurological status of rats (positional sense, muscle tone, gait and stance). It is filed as in vivo. Conditions: Sprague-Dawley, rat, in vivo, rats. On the procedure: (§1) Abnormal neurological status in rats was evaluated by the positional sense test, the muscle tone test, and the gait and stance test. Inability of the rat to perform normally in at least two of these tests is taken as an indication of some neurological deficit.

In the next series the test system is rats. Described as above. The class given is in vivo. The method, then:
as §1

The test system of another series is hippocampal kindled rats. The series can be described thus: Hippocampal kindled seizures. It is filed as in vivo. The method, then: Bipolar electrodes were surgically implanted into the hippocampus of anesthetized rats, which were allowed to recover for one week. One week after the surgery, the rats were stimulated with suprathreshold trains of 200 μAmps for 10 sec, 50 Hz, every 30 min for 6 hours (12 stimulations per day) on alternate days (4 to 5 stimulus days) until they were fully kindled. One week later the effect of a single i.p. dose of test compound was assessed on behavioral seizure score (BSS) and afterdischarge duration (ADD). An initial group of kindled rats (n=6-8) were tested at 15, 45, 75, 105, 135, 165, and 195 min after drug administration. Results obtained at the various time points were compared with the last control stimulus delivered 15 minutes prior to drug administration. Thus, each animal serves as its own control. The BSS's were scored according to the following criteria: Stage 1—mouth and facial clonus; Stage 2—stage 1 plus head nodding; Stage 3—stage 2 plus forelimb clonus; Stage 4—stage 3 plus rearing; Stage 5—stage 4 plus repeated rearing and falling. The afterdischarge threshold (ADT) is measured in the kindled rat. […] The BSS and ADD for each dose were averaged at the TPE, the S.E.M. calculated, and the significance of the difference compared to control values determined. (Significant differences in BSS from control and treated groups are determined by the non-parametric Mann-Whitney U test).

The subject of another series is mechanical allodynia. The series can be described thus: Pain assay, partial ligation of the sciatic nerve (Von Frey). The class given is in vivo, rats. The settings on record: 5 mg/kg, 2 hour time point. The method, then:
Rats were anesthetized with sodium pentobarbital, the upper thigh shaved and wiped off with ethanol and betadine. A small incision was made in the skin and the underlying muscle separated to expose the sciatic nerve. Approximately ⅓ to ½ of the nerve was tied off by passing a needle (7.0) and nylon suture through the nerve. The muscle and skin incision were afterwards closed off and the animals kept warm until they had recovered from the anesthesia. This procedure was performed on the right side (ipsilateral) while a sham surgery exposing but not ligating the nerve was performed on the left hind leg (contralateral). After 7 days of recovery animals were tested for the development of mechanical allodynia (abnormal response to a non-noxious stimulus) by putting them in a bottomless plexiglass box placed on a wire mesh (¼″) platform. After 30-60 min of acclimatization a baseline mechanical sensitivity was determined by applying a series of calibrated Von Frey fibers perpendicularly to the plantar surface of each hind paw and holding it there for about 6 s with enough force to slightly bend the fiber. […] This was repeated until a 50% threshold for withdrawal could be determined. The allodynic threshold was then redetermined after i.p. application of SKA-19 at 5 mg/kg at the time-to-peak effect determined in the acute seizure models.

In another series the test system is CA1 pyramidal neurons. The series can be described thus: Hippocampal slice recordings. The class given is cell-based, mouse. The settings on record: for effect on AP firing: 1-s 150-pA current injection. The method, then:
Brain slice preparation was approved by the University of California, Irvine, Institutional Animal Care and Use Committee. Male C57BL/6 J mice (postnatal day 23) were anesthetized with halothane, decapitated, and brains transferred to an ice-cold, sucrose artificial cerebral spinal fluid (ACSF; Sigma-Aldrich). Hippocampal slices (300 μm) were prepared using a Leica VT1200S vibrating blade microtome (Leica Microsystems Inc., Buffalo Grove, Ill.). Slices were incubated at 33° C. in oxygenated (95% O2, 5% CO2) standard ACSF containing the following (mM) for at least 1 h before recordings: 126 NaCl, 2.5 KCl, 1.25 NaHPO4, 1.2 MgSO4, 10 glucose, 1.2 CaCl2, and 26 NaHCO3. Slices were submerged and continuously perfused at 2 ml/min with oxygenated ACSF at 33° C. during the current-clamp experiments. Voltage-clamp experiments were performed in the same ACSF but with 1 mM tetraethylammonium chloride (Sigma-Aldrich) and 0.5 μM tetrodotoxin (Sigma-Aldrich) added. Pyramidal CA1 neurons were visualized and identified with an upright microscope (Zeiss Axioskop Plus; Zeiss Jena, Germany) with infrared differential interference contrast optics. Recording pipettes (2-5 MΩ) were filled with intracellular solution containing (in mM): 126 K-gluconate; 4 KCl; 10 HEPES; 2 Mg-adenosine triphosphate; 0.3 Tris-guanosine triphosphate; 10 phosphocreatine, pH 7.20, 270-290 mOsm. In the current-clamp mode, depolarizing current pulses were applied from a membrane potential of −65 mV to evoke tonic firing activity. In the voltage-clamp mode, neurons were held at −55 mV and KCa currents elicited by 50-ms voltage steps to 10 mV, applied every 10 s. SKA-19 or NS309 were perfused for 10 min into the bath to allow for equilibrium. Recordings were performed in the whole-cell mode using a MultiClamp 700B amplifier (Molecular Devices), […] and sampled at 20 kHz with a Digidata 1322A digitizer (Molecular Devices). Data were acquired and analyzed with pClamp 10.2 software (Molecular Devices).

“Also recorded” adds a separate entry of the source.

What is called ED50 is the dose that gives a 50% effect, or the effect in half of the subjects. What is called TD50 is the dose at which the toxic effect under study appears in half of the subjects. A higher TD50 goes with lower toxicity. Take `Nc1nc2ccc(SC(F)(F)F)cc2s1` [SKA-19, 6-((trifluoromethyl)thio)benzo[d]thiazol-2-amine]: the “duration of full protection” value in the series with MES-induced seizures (10 mg/kg i.p. as solution) is 2.5 h. For the same compound, in the series on MES-induced seizures (5 and 6 mg/kg i.p. as solution), the “duration of significant seizure protection” value is “at least 90 min”. Also, in the series on MES-induced seizures (MES test, 10 mg/kg i.p. as solution), the “duration of protective activity” value is “up to 4 h”. Besides, the ED50 in the series on MES-induced seizures (Mus musculus, ip, 10 min, i.p. as solution, 10 min time point, read-out: ED50, seizure protection in the MES test) turned out to be 4.93 mg/kg; in the series on hippocampal kindled rats (Rattus norvegicus, ip, 2 h), 5.47 mg/kg. Besides, in the series with MES-induced seizures (i.p. as solution), the “onset of protection from seizures after application” value was at most 5 min. Also, the “protective index PI (TD50/ED50)” value in the series with MES-induced seizures (i.p. as solution, 10 min time point) came out at 3.2. This compound also showed a TD50 in series [1] (ip) of 14.3 mg/kg. Moreover, in series [1] (ip), the TD50 at 1 h was found to be 14.3 mg/kg. The TD50 at 4 h in series [1] (oral) is 77.4 mg/kg. Further, the deaths result in the series with rats (rat, in vivo) is reported as “No deaths”. Also, the neurotoxicity entry in the series with rats (rats, oral 30 mg/kg, 0.25-4 h) is “without inducing neurotoxicity”. In addition, the “afterdischarge duration (ADD)” value in the series on hippocampal kindled rats (30 mg/kg i.p., two fully kindled rats) was “completely suppressed”. In addition, the “seizure score after treatment” value with hippocampal kindled rats (30 mg/kg i.p., two fully kindled rats, predrug score 4-5) was determined as 0. Further, the “toxicity in kindled rats” value in the series with hippocampal kindled rats (highest dose 15 mg/kg) is listed as “no evidence of toxicity”. Besides, the “withdrawal threshold (Von Frey)” value with mechanical allodynia was “significantly increased”. For the same compound, the “effect on AP firing” value with CA1 pyramidal neurons (1 μM) is “slowed down AP firing”; with CA1 pyramidal neurons (25 μM), “completely suppressed”. Besides, the “reduction of the number of spikes” value in the series with CA1 pyramidal neurons (10 μM, all injected current levels) is recorded as “roughly 50%”. The “after-hyperpolarization amplitude of individual APs” value in the series with CA1 pyramidal neurons (10 μM, current-clamp) is recorded as “increase in after-hyperpolarization amplitude”. For the same compound, in the series with CA1 pyramidal neurons (voltage-clamp, 10 μM), the mAHP current amplitude result is “modest but significant increase; also recorded: increases the amplitude”.

Source of the values: patent US9675591B2, “Methods for treating seizure disorders and pain” (THE REGENTS OF THE UNIVERSITY OF CALIFORNIA, priority 2013, dated 2017).
